Experimental data reported in patent US7348427B2, “Antipathogenic benzamide compounds” (Genesoft Pharmaceuticals, Inc., priority 2001, dated 2008).

Key:
[1] = system: Bacillus cereus (ATCC 11778); experiment: MIC, NCCLS broth microdilution assay; format: cell-based; settings: A = B. cereus ATCC 11778
Procedure, shortened: (§1)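 Broth microdilution, NCCLS M7-A4/M11-A4/M27-T guidelines; readout = minimal inhibitory concentration. Candida: Manual of Clinical Microbiology method.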

[2] = system: Staphylococcus aureus (ATCC 13709, a methicillin sensitive strain (MSSA)); experiment: MIC, NCCLS broth microdilution assay; format: cell-based; settings: E = S. aureus ATCC 13709
Procedure, shortened: as §1

[3] = system: Staphylococcus aureus (ATCC 27660, a methicillin resistant strain (MRSA)); experiment: MIC, NCCLS broth microdilution assay; format: cell-based; settings: F = S. aureus ATCC 27660
Procedure, shortened: as §1

[4] = system: Candida albicans (ATCC 38247); experiment: Antifungal MIC assay; format: cell-based; settings: B = C. albicans ATCC 38247
Procedure, shortened: as §1

[5] = system: E. faecalis ATCC 29212; experiment: MIC, NCCLS broth microdilution assay; format: cell-based, Enterococcus faecalis; settings: C = E. faecalis ATCC 29212
Procedure, shortened: (§2)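 MICs were determined by NCCLS broth microdilution following documents M7-A4 and M11-A4 (1997).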

[6] = system: S. pneumoniae ATCC 49619; experiment: MIC, NCCLS broth microdilution assay; format: cell-based, Streptococcus pneumoniae; settings: H = S. pneumoniae ATCC 49619
Procedure, shortened: as §2

Row | Structure (SMILES) | Minimum Inhibitory Concentration (MIC) [1] | Minimum Inhibitory Concentration (MIC) [2] | Minimum Inhibitory Concentration (MIC) [3] | Minimum Inhibitory Concentration (MIC) [4] | Minimum Inhibitory Concentration (MIC) [5] | Minimum Inhibitory Concentration (MIC) [6]
1 | Cn1cc(NC(=O)c2cc(NC(=O)c3cc(NC(=O)c4ccc(Cl)cc4F)c[nH]3)cn2CCCO)cc1C(=O)NCCN1CCOCC1 [Compound C-14] | +++ (+++ = MIC ≦ 4) | +++ (+++ = MIC ≦ 4) | +++ (+++ = MIC ≦ 4) | >32 µg/mL | ++ (++ = 4 < MIC < 12) | +++ (+++ = MIC ≦ 4)
2 | Cn1cc(NC(=O)c2cc(NC(=O)c3cc(NC(=O)c4ccc(Cl)cc4F)c[nH]3)cn2CCCO)cc1C(=O)NCCN1CCOCC1 [Compound C-15] | ++ (++ = 4 < MIC < 12) | ++ (++ = 4 < MIC < 12) | +++ (+++ = MIC ≦ 4) | >32 µg/mL | + (+ = 12 ≦ MIC ≦ 32) | +++ (+++ = MIC ≦ 4)
3 | Cn1cc(NC(=O)c2cc(NC(=O)c3cc(NC(=O)c4ccc(Cl)cc4F)cn3CCCO)cn2C)cc1C(=O)NCCN1CCOCC1 [Compound C-16] | +++ (+++ = MIC ≦ 4) | +++ (+++ = MIC ≦ 4) | +++ (+++ = MIC ≦ 4) | >32 µg/mL | +++ (+++ = MIC ≦ 4) | +++ (+++ = MIC ≦ 4)
4 | COCn1cc(NC(=O)c2ccc(Cl)cc2F)cc1C(=O)Nc1cc(C(=O)Nc2cc(C(=O)NCCN3CCOCC3)n(C)c2)n(C)c1 [Compound C-17] | +++ (+++ = MIC ≦ 4) | +++ (+++ = MIC ≦ 4) | +++ (+++ = MIC ≦ 4) | >32 µg/mL | +++ (+++ = MIC ≦ 4) | +++ (+++ = MIC ≦ 4)
5 | Cn1cc(NC(=O)c2cc(NC(=O)c3cc(NC(=O)c4ccc(Cl)cc4F)cn3C)cn2CCCCl)cc1C(=O)NCCN1CCOCC1 [Compound C-18] | +++ (+++ = MIC ≦ 4) | +++ (+++ = MIC ≦ 4) | +++ (+++ = MIC ≦ 4) | >32 µg/mL | +++ (+++ = MIC ≦ 4) | +++ (+++ = MIC ≦ 4)
6 | Cn1cc(NC(=O)c2cc(NC(=O)c3cc(NC(=O)c4ccc(Cl)cc4F)c[nH]3)cn2CCCCl)cc1C(=O)NCCN1CCOCC1 [Compound C-19] | +++ (+++ = MIC ≦ 4) | +++ (+++ = MIC ≦ 4) | +++ (+++ = MIC ≦ 4) | >32 µg/mL | +++ (+++ = MIC ≦ 4) | +++ (+++ = MIC ≦ 4)
7 | CCSCCCn1cc(NC(=O)c2cc(NC(=O)c3ccc(Cl)cc3SCC)cn2C)cc1C(=O)Nc1cc(C(=O)Nc2cc(C(=O)NCCN3CCOCC3)n(C)c2)n(C)c1 [Compound C-20] | >32 µg/mL | >32 µg/mL | >32 µg/mL | >32 µg/mL | >32 µg/mL | +++ (+++ = MIC ≦ 4)
8 | Cc1cc(NC(=O)c2cc(NC(=O)c3cc(NC(=O)c4ccc(Cl)cc4NCCN4CCOCC4)cn3C)c[nH]2)sn1 [Compound C-21] | ++ (++ = 4 < MIC < 12) | ++ (++ = 4 < MIC < 12) | +++ (+++ = MIC ≦ 4) | >32 µg/mL | ++ (++ = 4 < MIC < 12) | +++ (+++ = MIC ≦ 4)
9 | Cc1cc(NC(=O)c2cc(NC(=O)c3cc(NC(=O)c4ccc(Cl)cc4NCCN4CCCCC4)cn3C)c[nH]2)sn1 [Compound C-22] | +++ (+++ = MIC ≦ 4) | +++ (+++ = MIC ≦ 4) | +++ (+++ = MIC ≦ 4) | + (+ = 12 ≦ MIC ≦ 32) | +++ (+++ = MIC ≦ 4) | +++ (+++ = MIC ≦ 4)
10 | Cc1cc(NC(=O)c2cc(NC(=O)c3cc(NC(=O)c4ccc(Cl)cc4NCCN4CCCC4)cn3C)c[nH]2)sn1 [Compound C-23] | +++ (+++ = MIC ≦ 4) | +++ (+++ = MIC ≦ 4) | +++ (+++ = MIC ≦ 4) | >32 µg/mL | ++ (++ = 4 < MIC < 12) | +++ (+++ = MIC ≦ 4)
11 | Cc1cc(NC(=O)c2cc(NC(=O)c3cc(NC(=O)c4ccc(Cl)cc4NCCN4CCSCC4)cn3C)c[nH]2)sn1 [Compound C-24] | ++ (++ = 4 < MIC < 12) | ++ (++ = 4 < MIC < 12) | +++ (+++ = MIC ≦ 4) | >32 µg/mL | ++ (++ = 4 < MIC < 12) | +++ (+++ = MIC ≦ 4)
12 | Cc1cc(NC(=O)c2cc(NC(=O)c3cc(NC(=O)c4ccc(Cl)cc4NCCCN4CCOCC4)cn3C)c[nH]2)sn1 [Compound C-25] | >32 µg/mL | >32 µg/mL | >32 µg/mL | >32 µg/mL | >32 µg/mL | +++ (+++ = MIC ≦ 4)
13 | Cc1cc(NC(=O)c2cc(NC(=O)c3cc(NC(=O)c4ccc(F)cc4F)cn3C)cn2CCN2CCOCC2)sn1 [Compound D-1] | +++ (+++ = MIC ≦ 4) | +++ (+++ = MIC ≦ 4) | +++ (+++ = MIC ≦ 4) | >32 µg/mL | +++ (+++ = MIC ≦ 4) | +++ (+++ = MIC ≦ 4)
14 | Cn1cc(NC(=O)c2ccc(F)cc2F)cc1C(=O)Nc1cc(C(=O)Nc2cc(C(=O)NCCN3CCCCC3)n(CCN3CCCCC3)c2)n(C)c1 [Compound D-5] | +++ (+++ = MIC ≦ 4) | +++ (+++ = MIC ≦ 4) | +++ (+++ = MIC ≦ 4) | >32 µg/mL | +++ (+++ = MIC ≦ 4) | +++ (+++ = MIC ≦ 4)
15 | Cc1cc(NC(=O)c2cc(NC(=O)c3cc(NC(=O)c4ccc(F)cc4F)cn3C)cn2CCC[N+](C)(C)C)sn1 [Compound D-6] | + (+ = 12 ≦ MIC ≦ 32) | >32 µg/mL | + (+ = 12 ≦ MIC ≦ 32) | >32 µg/mL | + (+ = 12 ≦ MIC ≦ 32) | +++ (+++ = MIC ≦ 4)
16 | CN(C)CCCn1cc(NC(=O)c2cc(NC(=O)c3ccc(F)cc3F)cn2C)cc1C(=O)Nc1cc(C(=O)NCCN2CCOCC2)n(C)c1 [Compound D-7] | +++ (+++ = MIC ≦ 4) | +++ (+++ = MIC ≦ 4) | +++ (+++ = MIC ≦ 4) | + (+ = 12 ≦ MIC ≦ 32) | +++ (+++ = MIC ≦ 4) | +++ (+++ = MIC ≦ 4)
17 | Cn1cc(NC(=O)c2cc(NC(=O)c3ccc(Cl)cc3F)c[nH]2)cc1C(=O)Nc1cc(C(=O)NCCN2CCCCC2)n(CCN2CCCCC2)c1 [Compound D-14] | +++ (+++ = MIC ≦ 4) | +++ (+++ = MIC ≦ 4) | +++ (+++ = MIC ≦ 4) | >32 µg/mL | +++ (+++ = MIC ≦ 4) | +++ (+++ = MIC ≦ 4)
18 | Cc1cc(NC(=O)c2cc(NC(=O)c3cc(NC(=O)c4ccc(Cl)cc4F)cn3CCCN(C)C)c[nH]2)sn1 [Compound D-15] | +++ (+++ = MIC ≦ 4) | +++ (+++ = MIC ≦ 4) | +++ (+++ = MIC ≦ 4) | +++ (+++ = MIC ≦ 4) | +++ (+++ = MIC ≦ 4) | +++ (+++ = MIC ≦ 4)
19 | Cc1cc(NC(=O)c2cc(NC(=O)c3cc(NC(=O)c4ccc(Cl)cc4F)c[nH]3)cn2CCC[N+](C)(C)C)sn1 [Compound D-23] | +++ (+++ = MIC ≦ 4) | +++ (+++ = MIC ≦ 4) | +++ (+++ = MIC ≦ 4) | ++ (++ = 4 < MIC < 12) | +++ (+++ = MIC ≦ 4) | +++ (+++ = MIC ≦ 4)
20 | Cc1cc(NC(=O)c2cc(NC(=O)c3cc(NC(=O)c4ccc(Cl)cc4F)cn3CCCN3CCC(O)CC3)c[nH]2)sn1 [Compound D-24] | +++ (+++ = MIC ≦ 4) | +++ (+++ = MIC ≦ 4) | +++ (+++ = MIC ≦ 4) | +++ (+++ = MIC ≦ 4) | +++ (+++ = MIC ≦ 4) | +++ (+++ = MIC ≦ 4)
